According to ChEMBL document CHEMBL2073965, “Kinetic analysis of the primary active transport of conjugated metabolites across the bile canalicular membrane: comparative study of S-(2,4-dinitrophenyl)-glutathione and 6-hydroxy-5,7-dimethyl-2-methylamino-4-(3-pyridylmethyl)benzothiazole glucuronide” (J Pharmacol Exp Ther, 1997):

What was measured:
Type in all cases: functional, cell membranes, Sprague-Dawley, Bile canalicular membrane vesicle
[1] = molecular target: T1, ATP-binding cassette sub-family C member 2 (Rattus norvegicus, UniProt Q63120); assay: TP_TRANSPORTER: inhibition of DNP-SG uptake (DNP-SG: 1 uM, 4MUG: 500 uM) in bile canalicular membrane vesicles from SD rat
[2] = molecular target: T1, ATP-binding cassette sub-family C member 2; assay: TP_TRANSPORTER: inhibition of DNP-SG uptake in bile canalicular membrane vesicles from SD rat
[3] = substrate: CNc1nc2c(Cc3cccnc3)c(C)c(O[C@@H]3O[C@H](C(=O)O)[C@@H](O)[C@H](O)[C@H]3O)c(C)c2s1; assay: (§1) TP_TRANSPORTER: uptake in bile canalicular membrane vesicles from SD rat
[4] = substrate: N[C@@H](CCC(=O)N[C@H](CSc1ccc([N+](=O)[O-])cc1[N+](=O)[O-])C(=O)NCC(=O)O)C(=O)O; assay: as §1

`O=C(O)[C@H]1O[C@@H](OCc2cc(=O)oc3cc(O)ccc23)[C@H](O)[C@@H](O)[C@@H]1O` was tested. Which Activity [1] did it give?
Its Activity is “inhibitor [+]”.

For `CNc1nc2c(Cc3cccnc3)c(C)c(O[C@@H]3O[C@H](C(=O)O)[C@@H](O)[C@H](O)[C@H]3O)c(C)c2s1` [E3040 GLUCURONIDE], which Ki [2] is on record?
Its Ki is 3.84 µM.

B1: ATP-binding cassette sub-family C member 2 (Rattus norvegicus) (protein)
chain: MDKFCNSTFWDLSLLESPEADLPLCFEQTVLVWIPLGFLWLLAPWQLYSVYRSRTKRSSITKFYLAKQVFVVFLLILAAIDLSLALTEDTGQATVPPVRYTNPILYLCTWLLVLAVQHSRQWCVRKNSWFLSLFWILSVLCGVFQFQTLIRALLKDSKSNMAYSYLFFVSYGFQIVLLILTAFSGPSDSTQTPSVTASFLSSITFSWYDRTVLKGYKHPLTLEDVWDIDEGFKTRSVTSKFEAAMTKDLQKARQAFQRRLQKSQRKPEATLHGLNKKQSQSQDVLVLEEAKKKSEKTTKDYPKSWLIKSLFKTFHVVILKSFILKLIHDLLVFLNPQLLKLLIGFVKSSNSYVWFGYICAILMFAVTLIQSFCLQSYFQHCFVLGMCVRTTVMSSIYKKALTLSNLARKQYTIGETVNLMSVDSQKLMDATNYMQLVWSSVIQITLSIFFLWRELGPSILAGVGVMVLLIPVNGVLATKIRNIQVQNMKNKDKRLKIMNEILSGIKILKYFAWEPSFQEQVQGIRKKELKNLLRFGQLQSLLIFILQITPILVSVVTFSVYVLVDSANVLNAEKAFTSITLFNILRFPLSMLPMVTSSILQASVSVDRLERYLGGDDLDTSAIRRVSNFDKAVKFSEASFTWDPDLEATIQDVNLDIKPGQLVAVVGTVGSGKSSLVSAMLGEMENVHGHITIQGSTAYVPQQSWIQNGTIKDNILFGSEYNEKKYQQVLKACALLPDLEILPGGDMAEIGEKGINLSGGQKQRVSLARAAYQDADIYILDDPLSAVDAHVGKHIFNKVVGPNGLLAGKTRIFVTHGIHFLPQVDEIVVLGKGTILEKGSYRDLLDKKGVFARNWKTFMKHSGPEGEATVNNDSEAEDDDDGLIPTMEEIPEDAASLAMRRENSLRRTLSRSSRSSSRRGKSLKNSLKIKNVNVLKEKEKEVEGQKLIKKEFVETGKVKFSIYLKYLQAVGWWSILFIILFYGLNNVAFIGSNLWLSAWTSDSDNLNGTNNSSSHRDMRIGVFGALGLAQGICLLISTLWSIYACRNASKALHGQLLTNILRAPMRFFDTTPTGRIVNRFSGDISTVDDLLPQTLRSWMMCFFGIAGTLVMICMATPVFAIIIIPLSILYISVQVFYVATSRQLRRLDSVTKSPIYSHFSETVTGLPIIRAFEHQQRFLAWNEKQIDINQKCVFSWITSNRWLAIRLELVGNLVVFCSALLLVIYRKTLTGDVVGFVLSNALNITQTLNWLVRMTSEAETNIVAVERISEYINVENEAPWVTDKRPPADWPRHGEIQFNNYQVRYRPELDLVLKGITCNIKSGEKVGVVGRTGAGKSSLTNCLFRILESAGGQIIIDGIDVASIGLHDLRERLTIIPQDPILFSGSLRMNLDPFNKYSDEEVWRALELAHLRSFVSGLQLGLLSEVTEGGDNLSIGQRQLLCLGRAVLRKSKILVLDEATAAVDLETDSLIQTTIRKEFSQCTVITIAHRLHTIMDSDKIMVLDNGKIVEYGSPEELLSNRGSFYLMAKEAGIENVNHTEL
For B1, which Km [3] is on record?
The Km was 5.7 µM.

What about the Km [4] of the same molecule?
The Km was 17.6 µM.
